# Laboratory results published in patent US4581354A, “3-arylcarbonyl- and 3-cycloalkylcarbonyl-1-aminoalkyl-1H-indoles, compositions and use” (Sterling Drug Inc., priority 1985, dated 1986).
# Structures can show the parent of a compound that is named as a salt. Where two headings read alike, the source gives them in different places.
# Key:
# [1] = test system: bradykinin; experiment: anti-bradykinin test (BRDK); type: in vivo; settings: for inhibition in vivo at 200 mg/kg: 200 mg./kg. oral; for inhibition in vivo at 50 mg/kg: 50 mg./kg. oral; for inhibition in vivo at 30 mg/kg: 30 mg./kg. oral; for inhibition in vivo at 300 mg/kg: 300 mg./kg. oral
# Source text: (§1) The test procedures used to determine the analgesic activities of the compounds have been described in detail in the prior art and are as follows: The acetylcholine-induced abdominal constriction test, which is a primary analgesic screening test designed to measure the ability of a test agent to suppress acetylcholine-induced abdominal constriction in mice, described by Collier et al., Brit. J. Pharmacol. Chemotherap. 32, 295 (1968); a modification of the anti-bradykinin test, which is also a primary analgesic screening procedure, described by Berkowitz et al., J. Pharmacol. Exptl. Therap. 177, 500-508 (1971), Blane et al., J. Pharm. Pharmacol. 19, 367-373 (1967), Botha et al., Eur. J. Pharmacol. 6, 312-321 (1969) and Deffenu et al., J. Pharm. Pharmacol. 18, 135 (1966); and the rat paw flexion test, described by Kuzuna et al., Chem. Pharm. Bull., 23, 1184-1191 (1975), Winter et al., J. Pharm. Exptl. Therap., 211, 678-685 (1979) and Capetola et al., J. Pharm. Exptl. Therap. 214, 16-23 (1980).
# (§2) Unless noted otherwise, all data were obtained on oral administration and are expressed either as the ED50 or as the percent inhibition at a given dose level (thus 30/100 or 30% inhibition at […].)
# (§3) In some instances, the compounds were retested two or more times, and ED50 values were calculated for each series of repeat tests. In such instances, each of the ED50 values so-obtained is given in a series of values, thus 6, 28, 30, 43 in the case of the species of Example 1AW in the acetylcholine-induced abdominal constriction test.
# [2] = test system: acetylcholine-induced abdominal constriction; experiment: animal or person; type: in vivo, mice; settings: for inhibition in vivo at 3 mg/kg: 3 mg./kg. i.v.; for inhibition in vivo at 10 mg/kg: 10 mg./kg. i.v.; for inhibition in vivo at 300 mg/kg: 300 mg./kg. oral; for inhibition in vivo at 1 mg/kg: 1 mg./kg. i.v.
# [3] = test system: rat paw flexion; experiment: rat paw flexion test (P.F.); type: in vivo; settings: for inhibition in vivo at 30 mg/kg: 30 mg./kg. oral; for inhibition in vivo at 100 mg/kg: 100 mg./kg. oral
# Source text: as §1, §2, §3
# [4] = Mus musculus, po, read-out: Ach ED50
# [5] = po, read-out: P.F. percent inhibition
# [6] = read-out: BRDK percent inhibition
# [7] = Mus musculus, iv, read-out: Ach percent inhibition
# [8] = Mus musculus, iv, read-out: Ach ED50
# [9] = Mus musculus, po, read-out: Ach percent inhibition
# [10] = Mus musculus, sc, read-out: Ach ED50
# [11] = 100 mg./kg. oral, read-out: BRDK percent inhibition
compound,measurement,setting,value
"COc1ccc(C(=O)c2cn(CCN3CCOCC3)c3ccccc23)cc1.CS(=O)(=O)O.O [Example 1A, 3-(4-methoxybenzoyl)-1-[2-(4-morpholinyl)ethyl]-1H-indole methanesulfonate monohydrate]",ED50,[1]; po,56 mg/kg
same,ED50,[2]; [4],73 mg/kg
CCc1ccc(C(=O)c2c(C)n(CCN3CCOCC3)c3ccccc23)cc1 [Example 1AC],inhibition in vivo at 30 mg/kg,[3]; [5],43%
same,inhibition in vivo at 50 mg/kg,"[3]; po, 50 mg./kg. oral, read-out: P.F. percent inhibition",57%
same,inhibition in vivo at 100 mg/kg,[3]; [5],75%
same,inhibition in vivo at 200 mg/kg,[1]; [6],0%
same,inhibition in vivo at 1.77 mg/kg,"[2]; Mus musculus, iv, 1.77 mg./kg. i.v., read-out: Ach percent inhibition",10%
same,inhibition in vivo at 2.2 mg/kg,"[2]; Mus musculus, iv, 2.2 mg./kg. i.v., read-out: Ach percent inhibition",10%
same,inhibition in vivo at 3 mg/kg,[2]; [7],80%
same,inhibition in vivo at 10 mg/kg,[2]; [7],100%
same,ED50,[2]; [4],30 mg/kg
O=C(c1ccccc1)c1cn(CCN2CCOCC2)c2ccccc12 [Example 1AP],inhibition in vivo at 50 mg/kg,[1]; [6],0%
same,inhibition in vivo at 200 mg/kg,[1]; [6],33%
same,inhibition in vivo at 400 mg/kg,"[1]; 400 mg./kg. oral, read-out: BRDK percent inhibition",60%
same,ED50,[2]; [4],42 mg/kg
Cc1c(C(=O)c2ccc(Cl)cc2)c2ccccc2n1CCN1CCOCC1 [Example 1AQ],inhibition in vivo at 10 mg/kg,"[3]; po, 10 mg./kg. oral, read-out: P.F. percent inhibition",0%
same,inhibition in vivo at 30 mg/kg,[3]; [5],12%
same,inhibition in vivo at 100 mg/kg,[3]; [5],12%
same,ED50,[2]; [8],17 mg/kg
same,inhibition in vivo at 300 mg/kg,[2]; [9],53%
Cc1c(C(=O)c2cccs2)c2ccccc2n1CCN1CCOCC1 [Example 1AT],inhibition in vivo at 50 mg/kg,[1]; [6],0%
same,inhibition in vivo at 200 mg/kg,[1]; [6],0%
same,ED50,[2]; [4],30 mg/kg
COc1ccc2c(C(=O)c3ccc(Cl)cc3)c(C)n(CCN3CCOCC3)c2c1 [Example 1AU],inhibition in vivo at 50 mg/kg,[1]; [6],0%
same,ED50,[2]; [4],42 mg/kg
COc1ccc2c(C(=O)c3cccs3)c(C)n(CCN3CCOCC3)c2c1 [Example 1AV],inhibition in vivo at 50 mg/kg,[1]; [6],0%
same,ED50,[2]; [4],38 mg/kg
Cc1c(C(=O)c2ccccc2)c2ccccc2n1C(C)CN1CCOCC1 (centres unmarked) [Example 1AW],ED50,[3]; oral,26 mg/kg
same,ED50,[1]; po,229 mg/kg
Cc1c(C(=O)c2ccccc2)c2ccccc2n1CC(C)N1CCOCC1 (centres unmarked) [Example 1AX],inhibition in vivo at 212 mg/kg,"[1]; 212 mg./kg. oral, read-out: BRDK percent inhibition",0%
same,ED50,[2]; [4],45 mg/kg
"COc1ccc(C(=O)c2c(C)n(CCN3CCOCC3)c3ccccc23)cc1 [Example 1B, 2-methyl-3-(4-methoxybenzoyl)-1-[2-(4-morpholinyl)ethyl]-1H-indole]",ED50,[1]; iv,8.1 mg/kg
same,ED50,[2]; [8],6.7 mg/kg
COc1ccc(C(=O)c2c(C)n(CCN3CCOCC3)c3ccccc23)c2ccccc12 [Example 1BI],inhibition in vivo at 6 mg/kg,"[1]; 6 mg./kg. oral, read-out: BRDK percent inhibition",0%
same,ED50,[2]; [8],0.69 mg/kg
same,inhibition in vivo at 300 mg/kg,[2]; [9],13%
same,inhibition in vivo at 100 mg/kg,"[2]; Mus musculus, sc, 100 mg./kg. s.c., read-out: Ach percent inhibition",27%
Cc1c(C(=O)c2cc3ccccc3o2)c2ccccc2n1CCN1CCOCC1 [Example 1S],ED50,[1]; po,162 mg/kg
same,inhibition in vivo at 1 mg/kg,[2]; [7],10%
same,inhibition in vivo at 3 mg/kg,[2]; [7],20%
same,inhibition in vivo at 10 mg/kg,[2]; [7],100%
same,ED50,[2]; [4],40 mg/kg
Cc1c(C(=O)c2ccccc2F)c2ccccc2n1C(C)CN1CCOCC1 (centres unmarked) [Example 2C],inhibition in vivo at 30 mg/kg,[1]; [6],0%
same,inhibition in vivo at 300 mg/kg,[1]; [6],60%
same,ED50,[2]; [8],3.3 mg/kg
same,ED50,[2]; [4],19 mg/kg
"COc1ccc(C(=O)c2c(C)n(CCN3CCCC(O)C3)c3ccccc23)cc1 (centres unmarked) [Example 3B, 1-[2-(3-hydroxy-1-piperidinyl)ethyl]-2-methyl-3-(4-methoxybenzoyl)-1H-indole]",inhibition in vivo at 30 mg/kg,[3]; [5],50%
same,inhibition in vivo at 100 mg/kg,[3]; [5],86%
same,inhibition in vivo at 300 mg/kg,"[3]; po, 300 mg./kg. oral, read-out: P.F. percent inhibition",86%
same,ED50,[2]; [8],3 mg/kg
same,ED50,[2]; [4],26.5 mg/kg
same,ED50,[2]; [10],10 mg/kg
"Cc1c(C(=O)c2cccc(N)c2)c2ccccc2n1CCN1CCOCC1 [Example 4A, 2-methyl-3-(3-aminobenzoyl)-1-[2-(4-morpholinyl)ethyl]-1H-indole]",ED50,[1]; po,53 mg/kg
same,ED50,[2]; [4],16 mg/kg
"CC(=O)Nc1ccc(C(=O)c2c(C)n(CCN3CCOCC3)c3ccccc23)cc1 [Example 5A, 2-methyl-3-(4-acetylaminobenzoyl)-1-[2-(4-morpholinyl)ethyl]-1H-indole]",inhibition in vivo at 300 mg/kg,[1]; [6],0%
same,inhibition in vivo at 1 mg/kg,[2]; [7],20%
same,inhibition in vivo at 3 mg/kg,[2]; [7],29%
same,inhibition in vivo at 10 mg/kg,[2]; [7],30%
same,ED50,[2]; [4],31 mg/kg
"Cc1c(C(=O)c2ccc(NC(=O)C(F)(F)F)cc2)c2ccccc2n1CCN1CCOCC1 [Example 5C, 2-methyl-3-[4-(N-trifluoroacetylamino)benzoyl]-1-[2-(4-morpholinyl)ethyl]-1H-indole]",inhibition in vivo at 30 mg/kg,[1]; [6],20%
same,inhibition in vivo at 100 mg/kg,[1]; [11],60%
same,inhibition in vivo at 300 mg/kg,[1]; [6],60%
same,ED50,[2]; [4],19 mg/kg
Cc1c(C(=O)c2ccc(NC(=O)c3ccccc3)cc2)c2ccccc2n1CCN1CCOCC1 [Example 5D],inhibition in vivo at 200 mg/kg,[1]; [6],20%
same,inhibition in vivo at 3 mg/kg,[2]; [7],57%
same,ED50,[2]; [8],29.1 mg/kg
same,ED50,[2]; [4],84 mg/kg
"Cc1c(C(=O)c2ccc(O)cc2)c2ccccc2n1CCN1CCOCC1.Cl [Example 6, 2-methyl-3-(4-hydroxybenzoyl)-1-[2-(4-morpholinyl)ethyl]-1H-indole hydrochloride]",inhibition in vivo at 100 mg/kg,[1]; [11],0%
same,inhibition in vivo at 300 mg/kg,[1]; [6],0%
same,inhibition in vivo at 10 mg/kg,[2]; [7],0%
same,inhibition in vivo at 30 mg/kg,"[2]; Mus musculus, iv, 30 mg./kg. i.v., read-out: Ach percent inhibition",0%
same,ED50,[2]; [4],83 mg/kg
same,inhibition in vivo at 30 mg/kg,"[2]; Mus musculus, sc, 30 mg./kg. s.c., read-out: Ach percent inhibition",13%
"Cc1c(C(=O)c2ccc(CN)cc2)c2ccccc2n1CCN1CCOCC1.Cl.Cl [Example 7, 2-methyl-3-(4-aminomethylbenzoyl)-1-[2-(4-morpholinyl)ethyl]-1H-indole dihydrochloride]",inhibition in vivo at 300 mg/kg,[1]; [6],0%
same,ED50,[2]; [4],40 mg/kg
"CNc1ccc(C(=O)c2c(C)n(CCN3CCOCC3)c3ccccc23)cc1 [Example 8A, 2-methyl-3-(4-methylaminobenzoyl)-1-[2-(4-morpholinyl)-ethyl]-1H-indole dihydrochloride hemihydrate]",inhibition in vivo at 30 mg/kg,[3]; [5],62%
same,ED50,[2]; [4],32 mg/kg
"Cc1c(C(=O)c2ccc(CNC(=N)N)cc2)c2ccccc2n1CCN1CCOCC1 [Example 17, 2-methyl-3-(4-guanidinylmethylbenzoyl)-1-[2-(4-morpholinyl)ethyl]-1H-indole sulfate (2:1)]",inhibition in vivo at 100 mg/kg,"[1]; sc, 100 mg./kg. s.c., read-out: BRDK percent inhibition",33%
same,inhibition in vivo at 30 mg/kg,"[2]; Mus musculus, po, 30 mg./kg. oral, read-out: Ach percent inhibition",7%
same,ED50,[2]; [10],6.6 mg/kg
"COc1ccc(C(=O)c2c(C)[nH]c3ccc(F)cc23)cc1 [Preparation 1F, 2-methyl-5-fluoro-3-(4-methoxybenzoyl)indole]",inhibition in vivo at 100 mg/kg,"[2]; Mus musculus, po, 100 mg./kg. oral, Table D, formula II intermediates (Preparations), read-out: Ach percent inhibition",0%
"CS(=O)(=O)O.Cc1cc2ccccc2n1C(C)CN1CCOCC1.O (centres unmarked) [Preparation 5A, 2-methyl-1-[1-methyl-2-(4-morpholinyl)ethyl]-1H-indole methanesulfonate hydrate]",inhibition in acetylcholine-induced abdominal constriction test,"[2]; 300 mg./kg. (p.o.), Preparations",40%
"Cc1cc2cc(F)ccc2n1C(C)CN(C)C (centres unmarked) [Preparation 8, 5-fluoro-2-methyl-1-(1-methyl-2-dimethylaminoethyl)-1H-indole]",ED50,"[2]; Mus musculus, po, Preparations, read-out: ED50 in acetylcholine-induced abdominal constriction test",25 mg/kg
